The record followed here is patent US20250121024A1, “COMBINED USE OF IMIQUIMOD AND A CASEIN HYDROLYSATE FOR THE TREATMENT OF CONDYLOMA” (NTD LABS, S.L.U., priority 2021, published 2025).

This assay concerns condyloma. Nature of the assay: Controlled, observational clinical trials of topical 5% imiquimod, oral casein hydrolysate and their combination in patients suffering from condyloma. The note with it: for Total resolution rate of condyloma (%): percentage of patients with total resolution. It is filed as in vivo, human. How it is done:
The efficacy of the combination of imiquimod and a casein hydrolysate, according to the characteristics defined in the present invention, for the treatment of patients with condyloma was evaluated. Specifically, it was evaluated whether oral supplementation with the casein hydrolysate in patients treated with topical 5% imiquimod produced an improvement in treatment efficacy (rate of complete resolution of condyloma) and/or reduced recurrences (rate of recurrences) after the treatment.
A controlled, observational clinical trial was carried out, which included 44 female patients suffering from condyloma, who were divided into two groups: • Imiquimod group (I) (24 patients): treated with 5% imiquimod cream (3 times per week for up to 16 weeks). • Imiquimod+casein hydrolysate group (I+C) (20 patients): treated with 5% imiquimod cream (3 times per week for up to 16 weeks) plus oral casein hydrolysate (6 g once per day, for 6 months).
Likewise, a controlled, observational clinical trial was carried out with 20 patients suffering from condyloma (Group casein hydrolysate (C)) who were treated only with oral casein hydrolysate for 6 months (6 grams, once per day).
A commercially available casein hydrolysate (HuPaVir®) and a commercially available 5% imiquimod cream (Aldara® 5% cream) were used in the study.
In particular, the evaluation of patients at 4, 8, 12 and 16 weeks after starting treatment is included, as well as after 6 months (for group C some points are not available), wherein the percentage of patients with total resolution of condyloma during treatment (up to 16 weeks) and the recurrence rate 6 months after starting the treatment is reported.

Consider `CC(C)Cn1cnc2c(N)nc3ccccc3c21` [I, 1-(2-methylpropyl)-1H-imidazo[4,5-c]quinoline-4-amine], for which the “Total resolution rate of condyloma (%)” value is on record as 8.33% (4 weeks after starting treatment); 28.57% (8 weeks after starting treatment); 58.33% (12 weeks after starting treatment); 58% (12 weeks after starting treatment, listed as imiquimod); 72.72% (16 weeks after starting treatment). Under “6 months after starting the treatment”, the “Recurrence rate (%)” value is reported as 14.3%.
